Data from patent US20050159599A1, “Cyclic compound, process for producing the same, and pest control agent” (priority 2002, published 2005).

How the values were obtained:
Spodoptera litura [1] = assay: Insecticidal effect for Spodoptera litura by immersion treatment of host crop root (Test Example 4); type: in vivo; details: 25 ppm, soybean root immersion 5 days, second-instar larvae of Spodoptera litura, fifth day after
How it was run: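 Soil was washed from the roots of soybean plants at the primary-leaf stage, and the roots were immersed in a pesticidal solution held in a light-shielded 100 ml Erlenmeyer flask. The solution was made from acetone containing Tween 20, diluted with ion-exchange water. Five days after root immersion, two primary leaves were cut and placed in a 180 ml cup with ten second-instar Spodoptera litura larvae, then kept at 25° C. Survivors were counted five days later. The rate of dead pests (%) was calculated as dead pests divided by test pests, times 100.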

Plutella xylostella [2] = assay: Insecticidal effect for Plutella xylostella by immersion treatment of host crop root (Test Example 3); type: in vivo; details: 25 ppm, cabbage root immersed 5 days, ten second-instar larvae on stem and leaves, counted on the fifth day, 24° C.
Method: Insecticidal Effect for Plutella xylostella by Immersion Treatment of Host Crop Root
Roots of 4-leave stage cabbage was washed with tap water to remove soil, and then immersed in a pesticidal solution which was prepared by dissolving 5 mg of test compound (represented by the compound Nos. in the above Examples) in 0.5 ml of acetone containing Tween 20 (trade name) and then diluting it to the prescribed concentration (25 ppm) with ion-exchange water, and which was filled in a light-shielded Erlenmeyer flask (100 ml). On the fifth day after immersion of root, the root was cut off, and the stem and leaves were put into an ice cream cup (180 ml). Ten second-instar larvae of Plutella xylostella were set free therein, and the cup was left in a temperature-controlled breeding room (24° C.). On the fifth day after, the number of surviving Plutella xylostella was examined. The rate of dead pests was calculated by the following formula. rate of dead pests (%)=(number of dead pests/number of test pests)×100

Spodoptera litura [3] = assay: Insecticidal effect for Spodoptera litura by spraying treatment to host crop (Test Example 2); type: in vivo; details: 100 ppm, sprayed on soybean, third-instar larvae of Spodoptera litura, fifth day after; for pest or weed control at 100 ppm: 120 h, read-out: rate of dead pests (%)
How it was run: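 Ten third-instar larvae held at 25° C. on two excised primary soybean leaves previously sprayed to dripping with 100 ppm test solution. Mortality (%) calculated from dead versus tested larvae on the fifth day.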

Plutella xylostella [4] = assay: Pest control effect for Plutella xylostella by plant seedling foot soil surface irrigation treatment, 24th day (Test Example 6); type: in vivo; details: 20 mg/plant; soil surface irrigation of cabbage; larvae counted on the 24th day
Method: Pest Control Effect for Plutella xylostella by Plant Seedling Foot Soil Surface Irrigation Treatment With Pesticidal Solution
A pesticidal solution which was prepared by dissolving 20 mg of test compound (represented by the compound Nos. in the above Examples) in 0.2 ml of acetone containing Tween 20 (trade name) and then diluting to 3 ml with ion-exchange water, was irrigated on the plant foot soil surface of 2.5-leave stage cabbage. This cabbage plant was transplanted to 1/5000a pot, and left in a facility wherein imagoes of Plutella xylostella were set free to lay eggs successively. On the 24th day after, the number of lavae on the plant was examined. The rate of pest control was calculated by the following formula. rate of pest control (%)=(1−number of pests in treated plant/number of pests in non-treated-plant)×100

Plutella xylostella [5] = assay: Insecticidal effect for Plutella xylostella by immersion treatment of host crop (Test Example 1); type: in vivo; details: cabbage leaf dipped, second-instar larvae of Plutella xylostella, fifth day after; for rate of dead pests (%): 100 ppm; for pest or weed control at 100 ppm: foliar, 120 h, read-out: rate of dead pests (%)
How it was run: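 Cabbage leaf discs dipped in 100 ppm compound (acetone/Tween 20, diluted in sticker water), dried, then infested with ten second-instar larvae and kept at 24° C. Survivors counted on day 5; mortality expressed as dead/tested pests ×100.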

Tetranychus urticae = assay: Acaricidal effect for Tetranychus urticae (Test Example 5); type: in vivo; details: 100 ppm (table); spray on kidney bean with ten female imagoes; survivors counted on second and seventh day, 25° C.
Method: Acaricidal Effect for Tetranychus urticae
Ten female imagoes Tetranychus urticae were set free on a kidney bean wherein primary leaves had just developed. On the following day, a pesticidal solution, which was prepared by dissolving 5 mg of test compound (represented by the compound Nos. in the above Examples) in 0.5 ml of acetone containing Tween 20 ([…]) with Dain (trade name, sticker) water diluted 5000-fold, was sprayed with spray gun in the amounts wherein the pesticidal solution dripped. The kidney bean was left in a temperature-controlled breeding room (25° C.). On the second and seventh day after treatment, the number of surviving Tetranychus urticae was examined. The rate of decrease was calculated by the following formula. rate of decrease (%)=(1−(S2/(5.59×(10+(10+S1)/2+S1))))×100 In the above formula, • S1; the number of surviving imagoes on the second day after • S2; the number of surviving pests on the seventh day after […]

Structure (SMILES)	rate of dead pests (%) (Spodoptera litura [3])	rate of pest control (%) (Plutella xylostella [4])	rate of dead pests (%) (Plutella xylostella [5])	rate of decrease (%) (Tetranychus urticae)	further results
O=C(c1c(F)cccc1F)N1COCN(c2cc(Cl)c(F)c(Cl)c2F)C1=O [I-4]	100	92			rate of dead pests (%) (Spodoptera litura [1]): 100%; rate of dead pests (%) (Plutella xylostella [2]): 95%
O=C(c1c(F)cccc1F)N1COCN(c2ccc(SC(F)(F)F)cc2)C1=O [I-25]		88	100		
O=C(c1c(F)cccc1F)N1COCN(c2ccc([S+]([O-])C(F)(F)F)cc2)C1=O (centres unmarked) [I-26]	100	100	100		rate of dead pests (%) (Spodoptera litura [1]): 100%; rate of dead pests (%) (Plutella xylostella [2]): 100%
C[S+]([O-])c1ccc(N2COCN(C(=O)c3c(F)cccc3F)C2=O)c(F)c1 (centres unmarked) [I-29]	100	92	100		rate of dead pests (%) (Spodoptera litura [1]): 100%; rate of dead pests (%) (Plutella xylostella [2]): 100%
O=C(c1c(F)cccc1F)N1COCN(c2ccc([S+]([O-])C(F)(C(F)(F)F)C(F)(F)F)cc2F)C1=O (centres unmarked) [I-159, 3-(2,6-difluorobenzoyl)-5-[2-fluoro-4-(1,1,1,2,3,3,3-heptafluoro-2-propylsulfinyl)phenyl]tetrahydro-4H-1,3,5-oxadiazin-4-one]					melting point: 40 to 45 °C
O=C(c1c(F)cccc1F)N1CSCN(c2ccc(Cl)cc2)C1=O [II-1, 3-(4-chlorophenyl)-5-(2,6-difluorobenzoyl)tetrahydro-4H-1,3,5-thiadiazin-4-one]					melting point: 128.5 to 130.5 °C
O=C(c1c(F)cccc1F)N1C[S+]([O-])CN(c2ccc(Cl)cc2)C1=O (centres unmarked) [II-2, 3-(4-chlorophenyl)-5-(2,6-difluorobenzoyl)tetrahydro-4H-1,3,5-thiadiazin-4-one-1-oxide]					melting point: 220 to 220.5 °C
O=C(c1c(F)cccc1F)N1CS(=O)(=O)CN(c2ccc(Cl)cc2)C1=O [II-3, 3-(4-chlorophenyl)-5-(2,6-difluorobenzoyl)tetrahydro-4H-1,3,5-thiadiazin-4-one-1,1-dioxide]					melting point: 274 to 275 °C
O=C(c1c(F)cccc1F)N1CSCN(c2cc(Cl)c(F)c(Cl)c2F)C1=O [II-10]	100	88	100		rate of dead pests (%) (Spodoptera litura [1]): 100%
CC(C)N1CN(C(=O)c2c(F)cccc2F)C(=O)N(c2ccc(Cl)cc2)C1 [III-3, 1-(4-chlorophenyl)-3-(2,6-difluorobenzoyl)-5-isopropyltetrahydro-1,3,5-triazin-2(1H)-one]					melting point: 130 to 131 °C
C=CCN1CN(C(=O)c2c(F)cccc2F)C(=O)N(c2ccc(Oc3ccc(C(F)(F)F)cc3Cl)cc2F)C1 [III-24]	100		100	95	
CC(C)N1CN(C(=O)c2c(F)cccc2F)C(=O)N(c2ccc(Oc3ccc(C(F)(F)F)cc3Cl)cc2F)C1 [III-25]	100		100	97	
O=C(c1c(F)cccc1F)N1CNCN(c2ccc(Oc3ccc(C(F)(F)F)cc3Cl)cc2F)C1=O [III-27, 1-[4-(2-chloro-4-trifluoromethylphenoxy)-2-fluorophenyl]-3-(2,6-difluorobenzoyl)tetrahydro-1,3,5-triazin-2(1H)-one]				96	pest or weed control at 100 ppm (Spodoptera litura [3]): 100%; pest or weed control at 100 ppm (Plutella xylostella [5]): 100%
COC(=O)SN1CN(C(=O)c2c(F)cccc2F)C(=O)N(c2ccc(Oc3ccc(C(F)(F)F)cc3Cl)cc2F)C1 [III-31]	100		100	99	
O=C(O)C(=O)N1CN(C(=O)c2c(F)cccc2F)C(=O)N(c2ccc(Oc3ccc(C(F)(F)F)cc3Cl)cc2F)C1 [III-38, 2-[3-[4-(2-chloro-4-trifluoromethylphenoxy)-2-fluorophenyl]-5-(2,6-difluorobenzoyl)hexahydro-4-oxo-1,3,5-triazin-1-yl]-2-oxoacetic Acid]				98	pest or weed control at 25 ppm (Spodoptera litura [1]; 120 h, read-out: rate of dead pests (%)): 100%; pest or weed control at 25 ppm (Plutella xylostella [2]; Plutella xylostella, 120 h, read-out: rate of dead pests (%)): 90%; pest or weed control at 100 ppm (Spodoptera litura [3]): 100%
O=C(OCc1ccccc1)C(=O)N1CN(C(=O)c2c(F)cccc2F)C(=O)N(c2ccc(Oc3ccc(C(F)(F)F)cc3Cl)cc2F)C1 [III-39, Benzyl 2-[3-[4-(2-chloro-4-trifluoromethylphenoxy)-2-fluorophenyl]-5-(2,6-difluorobenzoyl)hexahydro-4-oxo-1,3,5-triazin-1-yl]-2-oxoacetate]				97	pest or weed control at 100 ppm (Spodoptera litura [3]): 100%; pest or weed control at 100 ppm (Plutella xylostella [5]): 100%
NC(=O)C(=O)N1CN(C(=O)c2c(F)cccc2F)C(=O)N(c2ccc(Oc3ccc(C(F)(F)F)cc3Cl)cc2F)C1 [III-41]	100		100	97	
O=C(CBr)N1CN(C(=O)c2c(F)cccc2F)C(=O)N(c2ccc(Oc3ccc(C(F)(F)F)cc3Cl)cc2F)C1 [III-44]	100		100	96	
CSCC(=O)N1CN(C(=O)c2c(F)cccc2F)C(=O)N(c2ccc(Oc3ccc(C(F)(F)F)cc3Cl)cc2F)C1 [III-45]	100		100	100	
CON(C)C(=O)C(=O)N1CN(C(=O)c2c(F)cccc2F)C(=O)N(c2ccc(Oc3ccc(C(F)(F)F)cc3Cl)cc2F)C1 [III-48]			100	95	
O=C(c1c(F)cccc1F)N1CNCN(c2ccc(SC(F)(F)C(F)Cl)cc2F)C1=O (centres unmarked) [III-78]	100	83	100		
CN1CN(C(=O)c2c(F)cccc2F)C(=O)N(c2ccc([S+]([O-])C(F)(F)C(F)Cl)cc2F)C1 (centres unmarked) [III-84]	100	100	100		
C#CCN1CN(C(=O)c2c(F)cccc2F)C(=O)N(c2ccc([S+]([O-])C(F)(F)C(F)Cl)cc2F)C1 (centres unmarked) [III-89]	100	92	100		rate of dead pests (%) (Plutella xylostella [2]): 100%
